Experimental data from ChEMBL document CHEMBL1201862, “PubChem BioAssay data set” (2004).
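Cells were grown in 96-well plates and exposed to each compound for 48 hours at five concentrations; endpoints were interpolated linearly between bracketing concentrations, or set to the highest concentration if not reached. GI50 is the concentration that inhibits growth by half.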 The source made the active and inactive calls. Cut-off read from the data, not from the text of the source: active = GI50 up to about 1.1 µM and inactive = higher.

Experiments:
Assay in all cases: inhibition of tumour cell growth, NCI panel, 48 h
[1] = tested on: HT-29
[2] = tested on: EKVX
[3] = tested on: CAKI-1
[4] = tested on: 786-0
[5] = tested on: KM12
[6] = tested on: CCRF-CEM
[7] = tested on: K562
[8] = tested on: SF-295
[9] = tested on: RPMI-8226
[10] = tested on: SN12C
[11] = tested on: NCI-H226
[12] = tested on: UACC-257
[13] = tested on: UO-31
[14] = tested on: NCI-H460
[15] = tested on: SNB-75
[16] = tested on: NCI-H522
[17] = tested on: Malme-3M

Measured: GI50

O=C1NC(O)n2c(=O)[nH]c(=O)n21 (stereo unspecified)
inactive: [1] > 100 µM | [2] > 100 µM | [3] > 100 µM | [4] > 100 µM | [5] > 100 µM | [6] > 100 µM | [7] > 100 µM | [8] > 100 µM | [9] > 100 µM | [10] > 100 µM | [11] > 100 µM | [12] > 100 µM | [13] > 100 µM | [14] > 100 µM | [15] > 100 µM | [16] > 100 µM

Clc1ccc(C2=NOC(C3CCCCC3)C2)cc1 (stereo unspecified)
inactive: [1] > 100 µM | [4] > 100 µM | [17] > 100 µM | [5] > 100 µM | [6] > 100 µM | [7] > 100 µM | [8] > 100 µM | [9] > 100 µM | [10] > 100 µM | [11] > 100 µM | [12] > 100 µM | [13] > 100 µM | [14] > 100 µM | [15] > 100 µM | [16] > 100 µM

C=CN1C(=O)OC[C@@H]1c1ccccc1
inactive: [1] > 100 µM | [2] > 100 µM | [3] > 100 µM | [4] > 100 µM | [17] > 100 µM | [5] > 100 µM | [6] > 100 µM | [7] > 100 µM | [8] > 100 µM | [9] 34.3 µM | [10] > 100 µM | [11] > 100 µM | [12] > 100 µM | [13] > 100 µM | [14] > 100 µM | [15] > 100 µM | [16] > 100 µM

O=S1(=O)c2ccccc2NC(c2ccc3ccccc3c2)CC1c1ccccc1F (stereo unspecified)
inactive: [1] > 100 µM | [2] > 100 µM | [3] > 100 µM | [4] > 100 µM | [17] > 100 µM | [5] > 100 µM | [6] > 100 µM | [7] > 100 µM | [8] > 100 µM | [9] > 100 µM | [10] > 100 µM | [11] > 100 µM | [12] > 100 µM | [13] > 100 µM | [14] > 100 µM | [15] > 100 µM | [16] > 100 µM

O=C1CCCc2c(O)ccc(O)c21
inactive: [1] > 100 µM | [2] 85.7 µM | [4] > 100 µM | [17] > 100 µM | [5] > 100 µM | [6] 19.1 µM | [7] 35.9 µM | [8] > 100 µM | [9] 40.6 µM | [10] > 100 µM | [11] > 100 µM | [12] > 100 µM | [13] > 100 µM | [14] > 100 µM | [15] 38.5 µM | [16] 12.6 µM

COc1cccc(C=O)c1[O-].COc1cccc(C=O)c1[O-].[Zn+2]
inactive: [1] 97.7 µM | [2] 61.5 µM | [4] 49 µM | [17] 69 µM | [5] > 100 µM | [6] 28.9 µM | [7] 55.3 µM | [8] 23.3 µM | [9] 49.1 µM | [10] 39.7 µM | [11] > 100 µM | [12] 33.9 µM | [13] 28.2 µM | [14] 42.1 µM | [15] 42 µM | [16] > 100 µM

O=c1cc(-c2ccccc2)[nH]c2c(F)ccc(F)c12
inactive: [1] 33.5 µM | [3] 56.6 µM | [4] 79.6 µM | [17] 31.7 µM | [5] 18.5 µM | [6] > 100 µM | [7] 30.3 µM | [8] 33 µM | [9] 31.1 µM | [10] 63.5 µM | [11] 37.6 µM | [12] > 100 µM | [13] 88.3 µM | [14] 32.5 µM | [15] 15 µM | [16] 27.7 µM

CCOC(=O)C(C[Si](C)(C)C)P(=O)(OCC)OCC (stereo unspecified)
inactive: [1] > 100 µM | [3] > 100 µM | [4] > 100 µM | [17] > 100 µM | [5] > 100 µM | [6] > 100 µM | [7] > 100 µM | [8] > 100 µM | [9] > 100 µM | [10] > 100 µM | [11] > 100 µM | [12] > 100 µM | [13] > 100 µM | [14] > 100 µM | [15] 38.5 µM | [16] > 100 µM

COc1ccc2c(c1)CCc1cnn(C3OC(COC(C)=O)C(OC(C)=O)C(OC(C)=O)C3OC(C)=O)c1-2 (stereo unspecified)
inactive: [1] 37.2 µM | [2] 49 µM | [3] 76.2 µM | [4] 28.2 µM | [17] > 10 µM | [5] > 100 µM | [6] 15 µM | [7] 14.5 µM | [8] > 100 µM | [9] 16.7 µM | [10] > 100 µM | [11] 79.6 µM | [12] > 100 µM | [14] > 100 µM | [15] 36.6 µM | [16] 17 µM

CC(=O)N(N=O)c1ccc(N(N=O)C(C)=O)cc1
inactive: [1] > 100 µM | [3] > 100 µM | [4] > 100 µM | [17] > 100 µM | [6] > 100 µM | [7] > 100 µM | [8] > 100 µM | [9] > 100 µM | [10] > 100 µM | [11] > 100 µM | [13] > 100 µM | [14] > 100 µM | [15] > 100 µM | [16] > 100 µM

CN(C)NC(=S)NC12CC3CC(CC(C3)C1)C2
inactive: [1] > 100 µM | [2] > 100 µM | [3] > 100 µM | [4] > 100 µM | [17] > 100 µM | [5] > 100 µM | [6] > 100 µM | [7] > 100 µM | [8] > 100 µM | [10] > 100 µM | [11] > 100 µM | [12] > 100 µM | [13] > 100 µM | [14] > 100 µM | [15] > 100 µM | [16] > 100 µM

O=C1CC(S(=O)(=O)O)C=C1Nc1cccc(Cl)c1 (stereo unspecified)
inactive: [1] > 100 µM | [2] > 100 µM | [3] > 100 µM | [4] > 100 µM | [17] > 100 µM | [5] > 100 µM | [6] > 100 µM | [7] > 100 µM | [8] > 100 µM | [10] > 100 µM | [11] > 100 µM | [12] > 100 µM | [13] > 100 µM | [14] > 100 µM | [15] > 100 µM | [16] > 100 µM
